Reference: ChEMBL document CHEMBL3045218, “Synthesis and Fungicidal Activities of Some 1-Aryloxyaceto-3-(5-aryl-1, 3, 4-oxadiazol-2-yl) thioureas and Corresponding Oxadiazolo [3, 2-a]-s-triazines” (1990)

Tests used:
Type in all cases: functional
Bipolaris oryzae [1] = experiment: Antifungal activity against Bipolaris oryzae assessed as fungus colony inhibition at 100 ppm measured after 96 hr by agar dilution method
Bipolaris oryzae [2] = experiment: Antifungal activity against Bipolaris oryzae assessed as fungus colony inhibition at 1000 ppm measured after 96 hr by agar dilution method
Aspergillus niger [3] = experiment: Antifungal activity against Aspergillus niger assessed as fungus colony inhibition at 100 ppm measured after 96 hr by agar dilution method
Aspergillus niger [4] = experiment: Antifungal activity against Aspergillus niger assessed as fungus colony inhibition at 10 ppm measured after 96 hr by agar dilution method
Aspergillus niger [5] = experiment: Antifungal activity against Aspergillus niger assessed as fungus colony inhibition at 1000 ppm measured after 96 hr by agar dilution method
Bipolaris oryzae [6] = experiment: Antifungal activity against Bipolaris oryzae assessed as fungus colony inhibition at 10 ppm measured after 96 hr by agar dilution method

Compound | inhibition at 100 ppm (Bipolaris oryzae [1]) | inhibition at 1000 ppm (Bipolaris oryzae [2]) | inhibition at 100 ppm (Aspergillus niger [3]) | inhibition at 10 ppm (Aspergillus niger [4]) | inhibition at 1000 ppm (Aspergillus niger [5]) | inhibition at 10 ppm (Bipolaris oryzae [6])
COc1ccc(-c2nn3c(COc4cc(C)ccc4C(C)C)nc(=S)nc3o2)cc1 | 64.8% | 80.2% | 66.4% | 52.6% | 82.5% | 52.3%
Cc1ccc(C(C)C)c(OCc2nc(=S)nc3oc(-c4ccccc4)nn23)c1 | 60.4% | 74.8% | 62.1% | 48.2% | 78.6% | 48.6%
COc1ccc(-c2nn3c(COc4ccc([N+](=O)[O-])cc4)nc(=S)nc3o2)cc1 | 60.5% | 77.9% | 58.5% | 41.5% | 75.8% | 48.5%
O=[N+]([O-])c1ccc(OCc2nc(=S)nc3oc(-c4ccccc4)nn23)cc1 | 56.2% | 73.4% | 53.3% | 40.7% | 71.2% | 41.5%
O=[N+]([O-])c1ccccc1OCc1nc(=S)nc2oc(-c3ccccc3)nn12 | 55.4% | 74.4% | 52.2% | 40.3% | 70.2% | 40.2%
COc1ccc(-c2nn3c(COc4ccc(C)cc4)nc(=S)nc3o2)cc1 | 40.5% | 60.8% | 42.7% | 32.6% | 62.3% | 30.9%
Cc1ccc(OCc2nc(=S)nc3oc(-c4ccccc4)nn23)cc1 | 52.5% | 72.6% | 56.7% | 40.9% | 75.3% | 40.3%
COc1ccc(-c2nn3c(COc4cccc(C)c4)nc(=S)nc3o2)cc1 | 40.2% | 60.3% | 42.3% | 32% | 62.5% | 30.4%
Cc1cccc(OCc2nc(=S)nc3oc(-c4ccccc4)nn23)c1 | 53.2% | 72.5% | 57.3% | 41.5% | 76.2% | 36.7%
COc1ccc(-c2nnc(NC(=S)NC(=O)COc3cc(C)ccc3C(C)C)o2)cc1 | 50.9% | 70.8% | 61.6% | 46.3% | 72.4% | 40.2%
Cc1ccc(C(C)C)c(OCC(=O)NC(=S)Nc2nnc(-c3ccccc3)o2)c1 | 45.3% | 66.6% | 48.2% | 33.7% | 69.3% | 31.8%
COc1ccc(-c2nnc(NC(=S)NC(=O)COc3ccc([N+](=O)[O-])cc3)o2)cc1 | 61.6% | 75.2% | 64.1% | 50.2% | 78.7% | 47.4%
O=C(COc1ccc([N+](=O)[O-])cc1)NC(=S)Nc1nnc(-c2ccccc2)o1 | 64.7% | 81.2% | 67.9% | 54.3% | 85.2% | 50.8%
O=C(COc1ccccc1[N+](=O)[O-])NC(=S)Nc1nnc(-c2ccccc2)o1 | 65.4% | 80.2% | 68.4% | 54.8% | 85.6% | 51.6%
COc1ccc(-c2nnc(NC(=S)NC(=O)COc3ccc(C)cc3)o2)cc1 | 55.6% | 75.3% | 56.9% | 39.2% | 76.3% | 38.5%
Cc1ccc(OCC(=O)NC(=S)Nc2nnc(-c3ccccc3)o2)cc1 | 50.8% | 70.1% | 52.6% | 35.8% | 72.2% | 37.2%
COc1ccc(-c2nnc(NC(=S)NC(=O)COc3cccc(C)c3)o2)cc1 | 56.4% | 75.6% | 55.3% | 39.4% | 77.2% | 40.5%
Cc1cccc(OCC(=O)NC(=S)Nc2nnc(-c3ccccc3)o2)c1 | 50.4% | 69.8% | 50.2% | 34.7% | 71.3% | 36.6%
